This note sets out measurements from PubChem BioAssay (NCI).

Among the test systems are A549 NSCLC; ACHN renal; COLO 205 colon; EKVX NSCLC; HCC-2998 colon; HOP-62 NSCLC; SK-MEL-2 melanoma; SNB-75 CNS; UO-31 renal; HS 578T breast.
Common to all, as to assay: NCI anticancer screen, dose series, 48 h

SMILES strings stand for the structures. Several values for one entry are separate records, joined by “and”; a condition that tells them apart may be missing. Identical values can stand only once.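 A five-concentration, 48-hour dose response in 96-well plates underlies each endpoint, interpolated linearly between surrounding concentrations. Here, GI50 denotes the concentration required for 50% inhibition of growth. TGI is the concentration that stops growth completely.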 Bounds are passed on as bounds.

For the compound `CCCCCCCCCCC1OC([C@@H](O)CC[C@H](O)C2CC[C@@H](CCCCCCCC(O)CC3=CC(C)OC3=O)O2)CCC1O` (stereo not given in full), the GI50 was 2.49 µM in the assay on A549 NSCLC; 1.62 µM in the assay on ACHN renal; 5.47 µM with COLO 205 colon; 9.5 µM in the assay with EKVX NSCLC; 6.29 µM in the assay on HOP-62 NSCLC; 6.55 µM with SK-MEL-2 melanoma. Also, the GI50 in the assay with SNB-75 CNS is 20.7 µM; with UO-31 renal, 2.66 µM. Moreover, the TGI in the assay on A549 NSCLC is over 25 µM; in the assay with ACHN renal, 8.79 µM and > 25 µM; in the assay on COLO 205 colon, over 19.8 µM; in the assay on EKVX NSCLC it was over 25 µM; in the assay on HCC-2998 colon, over 25 µM; with HOP-62 NSCLC it was over 25 µM. The TGI with SK-MEL-2 melanoma is over 18.1 µM; with SNB-75 CNS it was over 25 µM; in the assay on UO-31 renal, 10.4 µM.
Turning to `S=C(c1c[nH]c2ccccc12)N1CCN(Cc2ccccc2)CC1`, the TGI in the assay on ACHN renal is over 100 µM; in the assay with COLO 205 colon, 31 µM; with EKVX NSCLC, 41.8 µM; in the assay on HOP-62 NSCLC, 33 µM; in the assay on HS 578T breast it was 34.6 µM; in the assay with SK-MEL-2 melanoma, 34.1 µM. In addition, the TGI in the assay on SNB-75 CNS worked out at 37 µM; with UO-31 renal it was 21.5 µM.
Turning to `Cc1c(C(=O)/C=C/c2ccccc2O)c(=O)n(-c2ccccc2)n1C`, the TGI in the assay with A549 NSCLC is over 100 µM; in the assay with ACHN renal it was 45.2 µM; with COLO 205 colon, 70.8 µM; with EKVX NSCLC, over 100 µM; with HCC-2998 colon, 29.5 µM; with SK-MEL-2 melanoma, 38.4 µM. This compound had a TGI in the assay with SNB-75 CNS of over 100 µM.
Turning to `FC1C2=C(SC1(F)F)C1CCC2C1` (stereo not given), the TGI in the assay on A549 NSCLC, with ACHN renal, with COLO 205 colon, in the assay with EKVX NSCLC, in the assay on HS 578T breast and in the assay with SK-MEL-2 melanoma was over 100 µM throughout. For the same compound, the TGI in the assay with SNB-75 CNS and in the assay on UO-31 renal was over 100 µM in each case.
Turning to `Cc1noc(NC2=CC(=O)C(=O)c3ccccc32)c1C`, the TGI was 55.3 µM in the assay on A549 NSCLC; over 100 µM with ACHN renal; over 100 µM in the assay on COLO 205 colon; over 100 µM in the assay on EKVX NSCLC; over 100 µM in the assay on HOP-62 NSCLC; over 100 µM in the assay with HS 578T breast. Further, the TGI with SK-MEL-2 melanoma is 5.8 µM; in the assay on SNB-75 CNS, 82.5 µM; in the assay with UO-31 renal it was over 100 µM.
Turning to `C[N+]1(CCCl)CC[N+](C)(CCCl)CC1` (stereo not given), the TGI with A549 NSCLC, in the assay on ACHN renal, with COLO 205 colon, in the assay on EKVX NSCLC, in the assay with HOP-62 NSCLC and with HS 578T breast was over 100 µM each time. In addition, the TGI with SK-MEL-2 melanoma, in the assay with SNB-75 CNS and in the assay with UO-31 renal was over 100 µM in each case.
For `COc1ccc(C2C3COc4ccccc4C3=NN2c2ccccc2)cc1` (stereo not given), the TGI in the assay on A549 NSCLC, in the assay with ACHN renal, in the assay with COLO 205 colon, in the assay on EKVX NSCLC, with HOP-62 NSCLC and in the assay with HS 578T breast was over 100 µM in each case. For the same compound, the TGI with SK-MEL-2 melanoma, in the assay on SNB-75 CNS and with UO-31 renal was over 100 µM in each case.
For `O=C(N/N=C(/COc1ccc([N+](=O)[O-])cc1)N=Cc1ccncc1)c1ccncc1`, the TGI with A549 NSCLC, in the assay on ACHN renal, in the assay on COLO 205 colon, in the assay on EKVX NSCLC, with HCC-2998 colon and with HOP-62 NSCLC was over 100 µM each time. For the same compound, the TGI in the assay with SK-MEL-2 melanoma and in the assay on SNB-75 CNS was over 100 µM each time.
With `CC1C2(C)OC(=N)C(C#N)(C(c3cccc([N+](=O)[O-])c3)O2)C1(C#N)C#N` (stereo not given), the TGI in the assay with A549 NSCLC is over 100 µM; in the assay with ACHN renal, over 100 µM; in the assay with COLO 205 colon, 27.5 µM; in the assay with EKVX NSCLC, 98.3 µM; in the assay with HS 578T breast, over 100 µM; in the assay on SK-MEL-2 melanoma it was 61.7 µM. The TGI with SNB-75 CNS and with UO-31 renal was over 100 µM throughout.
On to `Cc1cc(S(=O)(=O)Nc2nc(N)nc(N(C)C)n2)c(SCC(=O)O)cc1Cl`, for which the TGI with A549 NSCLC, in the assay with ACHN renal, in the assay on COLO 205 colon, with EKVX NSCLC, in the assay with HCC-2998 colon and in the assay on HOP-62 NSCLC was over 10 µM each time. For the same compound, the TGI in the assay on SK-MEL-2 melanoma, in the assay with SNB-75 CNS and with UO-31 renal was over 10 µM in each case.
Regarding `CC(C)(C)C(=O)OC12/C(=N/O)CCCCCC1c1ccccc12` (stereo not given), the TGI in the assay on A549 NSCLC is 31.6 µM; in the assay with ACHN renal, 31.8 µM; in the assay with COLO 205 colon, 31.3 µM; in the assay with HCC-2998 colon, over 100 µM; in the assay with HOP-62 NSCLC, 37 µM; in the assay on SK-MEL-2 melanoma, 37.3 µM. Further, the figures for the TGI in the assay with SNB-75 CNS and in the assay on UO-31 renal were 27.8 µM and 31.7 µM, respectively.
On to `O=C(N/N=C1/C(=O)c2c3ccccc3cc3cccc1c23)c1ccccc1`, for which the TGI in the assay with A549 NSCLC is over 100 µM; in the assay on ACHN renal, over 67.4 µM; with COLO 205 colon it was over 100 µM; with EKVX NSCLC, over 100 µM; in the assay on HOP-62 NSCLC it was 40.3 µM; in the assay with HS 578T breast, over 73.2 µM. Besides, the figures for the TGI in the assay on SK-MEL-2 melanoma, in the assay with SNB-75 CNS and with UO-31 renal were over 94 µM, 74.9 µM and over 100 µM, respectively.
As to `Cc1csc(/N=C\c2c(O)c3ccccc3oc2=O)n1`, the TGI in the assay on A549 NSCLC is over 100 µM; in the assay on ACHN renal, over 100 µM; in the assay with COLO 205 colon, over 100 µM; in the assay on EKVX NSCLC, 99.3 µM; with HS 578T breast it was 94.5 µM; in the assay with SK-MEL-2 melanoma it was 49.5 µM. Besides, the results for the TGI with SNB-75 CNS and in the assay on UO-31 renal were 65.1 µM and 75.9 µM, respectively.
For the compound `COc1c(O)cc2c(c1O)C(=O)/C(=C/c1ccc(O)cc1)CO2`, the TGI with A549 NSCLC is over 100 µM; with ACHN renal, 48.3 µM; in the assay with COLO 205 colon, 32.5 µM; with EKVX NSCLC it was 71.9 µM; in the assay on HOP-62 NSCLC, 76.3 µM; in the assay with HS 578T breast, over 100 µM. Moreover, the TGI in the assay with SK-MEL-2 melanoma is over 100 µM; in the assay with SNB-75 CNS it was 57 µM; in the assay with UO-31 renal it was 65.1 µM.
As for `COC(=O)c1cnc(Cl)cn1`, the TGI with A549 NSCLC, in the assay with ACHN renal, in the assay on COLO 205 colon, in the assay with EKVX NSCLC, with HOP-62 NSCLC and in the assay on HS 578T breast was over 100 µM each time. For the same compound, the TGI with SK-MEL-2 melanoma is over 100 µM; with SNB-75 CNS, over 100 µM; with UO-31 renal it was 36.9 µM.
